# Results as given in US9890117B2, “Benzamide compounds and related methods of use” (Northwestern University, priority 2012, dated 2018).
# Where a name gives a salt, the structure may show the parent alone.
# Biological target: T1, SIRT2 (Homo sapiens, UniProt Q8IXJ6)
# T1 construct: recombinant active enzymes SIRT1, SIRT2, and the catalytically active fragment of SIRT3
# T1 sequence (Q8IXJ6 1-389): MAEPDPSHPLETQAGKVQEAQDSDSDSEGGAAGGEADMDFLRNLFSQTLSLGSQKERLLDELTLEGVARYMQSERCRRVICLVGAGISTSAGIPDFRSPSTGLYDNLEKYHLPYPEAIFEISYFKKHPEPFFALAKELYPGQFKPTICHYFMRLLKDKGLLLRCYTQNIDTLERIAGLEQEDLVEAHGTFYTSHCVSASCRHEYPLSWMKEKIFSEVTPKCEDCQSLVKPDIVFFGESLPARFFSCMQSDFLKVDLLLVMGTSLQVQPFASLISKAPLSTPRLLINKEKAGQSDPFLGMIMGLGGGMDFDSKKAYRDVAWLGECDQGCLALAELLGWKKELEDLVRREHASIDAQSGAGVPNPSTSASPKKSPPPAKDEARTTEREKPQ
# Test: Fluor-de-Lys biochemical sirtuin deacetylation assay, SIRT2
# Conditions: 10 μM
compound,measurement,value
"CC(=O)c1ccc([C@H](C)Oc2cccc(C(=O)Nc3ccc(C#N)cc3)c2)cc1 [Compound 216Al, (S)-3-(1-(4-acetylphenyl)ethoxy)-N-(4-cyanophenyl)benzamide]",inhibition at 10 µM,60%
"CC(O)c1ccc([C@@H](C)Oc2cccc(C(=O)Nc3ccc(C#N)cc3)c2)cc1 (stereo partly drawn) [Compound 216Am, N-(4-cyanophenyl)-3-((1R)-1-(4-(1-hydroxyethyl)phenyl)ethoxy)benzamide]",inhibition at 10 µM,21%
"CC(=O)c1ccc([C@@H](C)Oc2cncc(C(=O)Nc3ccc(C#N)cc3)c2)cc1 [Compound 216An, (R)-5-(1-(4-acetylphenyl)ethoxy)-N-(4-cyanophenyl)nicotinamide]",inhibition at 10 µM,95%
"CCC(CC)Oc1cccc(C(=O)Nc2ccc(C#N)cc2)c1 [Compound 216Ao, N-(4-cyanophenyl)-3-(pentan-3-yloxy)benzamide]",inhibition at 10 µM,37%
"CC(=O)c1ccc(C(Oc2cccc(C(=O)Nc3ccc(C#N)cc3)c2)C(C)C)cc1 (stereo not drawn) [Compound 216Ap, 3-(1-(4-acetylphenyl)-2-methylpropoxy)-N-(4-cyanophenyl)benzamide]",inhibition at 10 µM,44%
"CC(O)c1ccc([C@@H](C)Oc2cncc(C(=O)Nc3ccc(C#N)cc3)c2)cc1 (stereo partly drawn) [Compound 216Aq, N-(4-cyanophenyl)-5-((1R)-1-(4-(1-hydroxyethyl)phenyl)ethoxy)nicotinamide]",inhibition at 10 µM,0%
"CC(=O)c1ccc(COc2cccc(C(=O)Nc3ccc(C#N)cc3)c2)cc1 [Compound 216Ar, 3-((4-acetylbenzyl)oxy)-N-(4-cyanophenyl)benzamide]",inhibition at 10 µM,27%
"CC(=O)c1ccc(NC(=O)c2cccc(O[C@H](C)c3ccc(C(C)=O)cc3)c2)cc1 [Compound 216As, (R)—N-(4-acetylphenyl)-3-(1-(4-acetylphenyl)ethoxy)benzamide]",inhibition at 10 µM,97%
"CC(=O)c1ccc(C(C)(C)Oc2cccc(C(=O)Nc3ccc(Br)cc3)c2)cc1 [Compound 216At, 3-((2-(4-acetylphenyl)propan-2-yl)oxy)-N-(4-bromophenyl)benzamide]",inhibition at 10 µM,34%
"CC(=O)c1ccc(C(C)(C)Oc2cccc(C(=O)Nc3ccc(C(F)(F)F)cc3)c2)cc1 [Compound 216Au, 3-((2-(4-acetylphenyl)propan-2-yl)oxy)-N-(4-(trifluoromethyl)phenyl)benzamide]",inhibition at 10 µM,27%
"CC(=O)c1ccc(C(C)Oc2cccc(C(=O)Nc3ccc(Cl)cc3)c2)cc1 (stereo not drawn) [Compound 216Av, 3-(1-(4-acetylphenyl)ethoxy)-N-(4-chlorophenyl)benzamide]",inhibition at 10 µM,89%
"CC(=O)c1ccc(C(C)Oc2cccc(C(=O)Nc3ccc(F)cc3)c2)cc1 (stereo not drawn) [Compound 216Aw, 3-(1-(4-acetylphenyl)ethoxy)-N-(4-fluorophenyl)benzamide]",inhibition at 10 µM,62%
"COc1ccc(NC(=O)c2cccc(OC(C)c3ccc(C(C)=O)cc3)c2)cc1 (stereo not drawn) [Compound 216Ax, 3-(1-(4-acetylphenyl)ethoxy)-N-(4-methoxyphenyl)benzamide]",inhibition at 10 µM,56%
"CC(=O)c1ccc(NC(=O)c2cccc(OC(C)c3ccc(C(C)=O)cc3)c2)cc1 (stereo not drawn) [Compound 216Ay, N-(4-acetylphenyl)-3-(1-(4-acetylphenyl)ethoxy)benzamide]",inhibition at 10 µM,94%
"CC(=O)c1ccc(C(C)Oc2cccc(C(=O)Nc3ccc(CC#N)cc3)c2)cc1 (stereo not drawn) [Compound 216Az, 3-(1-(4-acetylphenyl)ethoxy)-N-(4-(cyanomethyl)phenyl)benzamide]",inhibition at 10 µM,58%
"CC(=O)c1ccc(C(C)Oc2cccc(C(=O)Nc3ccc(Br)cc3)c2)cc1 (stereo not drawn) [Compound 216Ba, 3-(1-(4-acetylphenyl)ethoxy)-N-(4-bromophenyl)benzamide]",inhibition at 10 µM,85%
"CC(=O)c1ccc(C(C)Oc2cccc(C(=O)Nc3ccc(S(C)(=O)=O)cc3)c2)cc1 (stereo not drawn) [Compound 216Bb, 3-(1-(4-acetylphenyl)ethoxy)-N-(4-(methylsulfonyl)phenyl)benzamide]",inhibition at 10 µM,70%
"CC(=O)c1ccc(C(C)Oc2cccc(C(=O)Nc3ccc(C(F)(F)F)cc3)c2)cc1 (stereo not drawn) [Compound 216Bc, 3-(1-(4-acetylphenyl)ethoxy)-N-(4-(trifluoromethyl)phenyl)benzamide]",inhibition at 10 µM,77%
"C[C@@H](Oc1cccc(C(=O)Nc2ccc(C#N)cc2)c1)c1ccc(F)cc1 [Compound 216l, (R)—N-(4-cyanophenyl)-3-(1-(4-fluorophenyl)ethoxy)benzamide]",inhibition at 10 µM,88%
"C[C@H](Oc1cccc(C(=O)Nc2ccc(C#N)cc2)c1)c1ccc(F)cc1 [Compound 216o, (S)—N-(4-cyanophenyl)-3-(1-(4-fluorophenyl)ethoxy)benzamide]",inhibition at 10 µM,54%
"CC(C)(Oc1cccc(C(=O)Nc2ccc(C#N)cc2)c1)c1ccc(F)cc1 [Compound 216p, N-(4-cyanophenyl)-3-((2-(4-fluorophenyl)propan-2-yl)oxy)benzamide]",inhibition at 10 µM,55%
"C=CCOc1cc(OCc2ccc(C#N)cc2)cc(C(=O)Nc2ccc(C#N)cc2)c1 [Compound 216v, 3-(allyloxy)-5-((4-cyanobenzyl)oxy)-N-(4-cyanophenyl)benzamide]",inhibition at 10 µM,11%
"N#Cc1ccc(COc2cc(OC[C@@H](O)CO)cc(C(=O)Nc3ccc(C#N)cc3)c2)cc1 [Compound 216x, (S)-3-((4-cyanobenzyl)oxy)-N-(4-cyanophenyl)-5-(2,3-dihydroxypropoxy)benzamide]",inhibition at 10 µM,25%
"CCN(CC)CCOc1cc(OCc2ccc(C#N)cc2)cc(C(=O)Nc2ccc(C#N)cc2)c1 [Compound 216y, 3-((4-cyanobenzyl)oxy)-N-(4-cyanophenyl)-5-(2-(diethylamino)ethoxy)benzamide]",inhibition at 10 µM,19%
"N#Cc1ccc(NC(=O)c2cccc(NCc3ccc(F)cc3)c2)nc1 [Compound 221b, N-(5-cyanopyridin-2-yl)-3-((4-fluorobenzyl)amino)benzamide]",inhibition at 10 µM,28%
"CN(Cc1ccc(C#N)cc1)Cc1cccc(C(=O)Nc2ccc(C#N)cc2)c1 [Compound 225a, 3-(((4-cyanobenzyl)(methyl)amino)methyl)-N-(4-cyanophenyl)benzamide]",inhibition at 10 µM,63%
"N#Cc1ccc(NC(=O)c2cccc(CN(Cc3ccc(F)c(F)c3)C3CC3)c2)cc1 [Compound 225d, N-(4-cyanophenyl)-3-((cyclopropyl(3,4-difluorobenzyl)amino)methyl)benzamide hydrochloride]",inhibition at 10 µM,55%
"N#Cc1ccc(NC(=O)c2cccc(CN(Cc3ccc(C(F)(F)F)cc3)C3CC3)c2)cc1 [Compound 225e, N-(4-cyanophenyl)-3-((cyclopropyl(4-(trifluoromethyl)benzyl)amino)methyl)-benzamide hydrochloride]",inhibition at 10 µM,49%
"N#Cc1ccc(NC(=O)c2cccc(CN(Cc3cc(F)cc(F)c3)C3CC3)c2)cc1 [Compound 225f, N-(4-cyanophenyl)-3-((cyclopropyl(3,5-difluorobenzyl)amino)methyl)benzamide hydrochloride]",inhibition at 10 µM,64%
"N#Cc1ccc(NC(=O)c2cccc(CN(Cc3ccc(C#N)nc3)C3CC3)c2)cc1 [Compound 225g, N-(4-cyanophenyl)-3-((((6-cyanopyridin-3-yl)methyl)(cyclopropyl)amino)-methyl)benzamide hydrochloride]",inhibition at 10 µM,44%
"CC(C)(C)N(Cc1ccc(C#N)cc1)Cc1cccc(C(=O)Nc2ccc(C#N)cc2)c1 [Compound 225h, 3-((tert-butyl(4-cyanobenzyl)amino)methyl)-N-(4-cyanophenyl)benzamide hydrochloride]",inhibition at 10 µM,28%
"N#Cc1ccc(NC(=O)c2cccc(CN(Cc3ccc(Br)cc3)C3CC3)c2)cc1 [Compound 225l, 3-(((4-bromobenzyl)(cyclopropyl)amino)methyl)-N-(4-cyanophenyl)benzamide hydrochloride]",inhibition at 10 µM,37%
"N#Cc1ccc(NC(=O)c2cccc3c2CCN(Cc2ccc(F)c(F)c2)C3)cc1 [Compound 225m, N-(4-cyanophenyl)-2-(3,4-difluorobenzyl)-1,2,3,4-tetrahydroisoquinoline-5-carboxamide hydrochloride]",inhibition at 10 µM,65%
"CN(C(=O)c1cncc(CN(Cc2ccc(F)c(F)c2)C2CC2)c1)c1ccc(C#N)cc1 [Compound 225n, N-(4-cyanophenyl)-5-((cyclopropyl(3,4-difluorobenzyl)amino)methyl)-N-methylnicotinamide hydrochloride]",inhibition at 10 µM,0%
"N#Cc1ccc(CN(Cc2cncc(C(=O)Nc3ccc(Cl)cc3)c2)C2CC2)cc1 [Compound 225o, N-(4-chlorophenyl)-5-(((4-cyanobenzyl)(cyclopropyl)amino)methyl)nicotinamide hydrochloride]",inhibition at 10 µM,8%
"CN(C(=O)c1cncc(CN(Cc2ccc(C#N)cc2)C2CC2)c1)c1ccc(Cl)cc1 [Compound 225p, N-(4-chlorophenyl)-5-(((4-cyanobenzyl)(cyclopropyl)amino)methyl)-N-methylnicotinamide hydrochloride]",inhibition at 10 µM,0%
"N#Cc1ccc(NC(=O)c2cccc(CN3CCc4cc(Br)ccc4C3)c2)cc1 [Compound 225q, 3-((6-bromo-3,4-dihydroisoquinolin-2(1H)-yl)methyl)-N-(4-cyanophenyl)benzamide hydrochloride]",inhibition at 10 µM,80%
"CC(=O)c1ccc(CN(Cc2cncc(C(=O)Nc3ccc(C#N)cc3)c2)C2CC2)cc1 [Compound 225r, 5-(((4-acetylbenzyl)(cyclopropyl)amino)methyl)-N-(4-cyanophenyl)nicotinamide hydrochloride]",inhibition at 10 µM,10%
"CC(=O)c1ccc(CN(Cc2cncc(C(=O)N(C)c3ccc(C#N)cc3)c2)C2CC2)cc1 [Compound 225s, 5-(((4-acetylbenzyl)(cyclopropyl)amino)methyl)-N-(4-cyanophenyl)-N-methylnicotinamide hydrochloride]",inhibition at 10 µM,3%
